Here are results for 13 compounds from patent US20240218022A1, “ANTI-VISTA MACROCYCLIC PEPTIDES AND COMPOSITIONS” (BRISTOL-MYERS SQUIBB COMPANY, priority 2022, published 2024).

The assay addresses T1, mouse VISTA (mVISTA) (Mus musculus, UniProt Q9D659).
T1 construct: expressed in transfected cells; host or cells: Human embryonic kidney 293T cells
T1 sequence (Q9D659 33-308): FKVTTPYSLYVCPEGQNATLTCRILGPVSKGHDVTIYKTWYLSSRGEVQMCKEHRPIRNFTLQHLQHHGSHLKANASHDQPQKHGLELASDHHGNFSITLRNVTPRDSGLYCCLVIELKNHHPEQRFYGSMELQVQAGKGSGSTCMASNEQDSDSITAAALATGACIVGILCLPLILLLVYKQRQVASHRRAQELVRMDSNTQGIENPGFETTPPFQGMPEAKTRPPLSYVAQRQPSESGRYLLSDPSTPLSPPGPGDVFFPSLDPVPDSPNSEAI
The experiment in a line: Cell-Based Binding High-Content Assay For mVISTA (HC CBA mVISTA). The gist of the method: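 Competition of compound with a biotinylated peptide (final 2 nM, 30 min at RT) for binding to mVISTA on 293T cells, run under no-wash or wash (1 h compound preincubation then removal) formats. Readout by Alexa 647–streptavidin imaging on a high-content platform; four-parameter logistic fit gave IC50.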

The mark [1] stands for this setting: cell-based binding high-content assay, mVISTA, the 15th table, read-out: HC CBA mVISTA IC50.

pIC50: −log10 of the molar value. Read-outs that look alike come from different tables or passages of the source. Starred links: 1 amine or outer side, 2 acyl side, 3 side chain; linkers in the order of their positions; H or OH if unused. Positions of bridges follow the written chain, without caps; N, C: chain ends. Non-standard residues stand in square brackets, D forms with d. Residues, ends and D or L forms follow the SMILES beside them. Phe(4-CONH2) = NC(=O)c1ccc(C[C@H](N)C(=O)O)cc1; Phe(3-Me) = Cc1cccc(C[C@H](N)C(=O)O)c1; γGlu = O=C(O)[C@H](CCC(=O)[*:2])N[*:1]; 2Nal = N[C@@H](Cc1ccc2ccccc2c1)C(=O)O; βAsp = O=C(O)[C@H](CC(=O)[*:2])N[*:1]; Ahp(2) = CCCCC[C@H](N)C(=O)O; NMeNle = CCCC[C@H](NC)C(=O)O; Tle = CC(C)(C)[C@H](N)C(=O)O; NHexGly = CCCCCCNCC(=O)O; Nle = CCCC[C@H](N)C(=O)O; Aun = NCCCCCCCCCCC(=O)O; AEEA = NCCOCCOCC(=O)O

With `CCCCCCN1CC(=O)N[C@@H](Cc2ccc(O)cc2)C(=O)N[C@@H](CCCC)C(=O)N[C@@H](CC(=O)O)C(=O)N[C@@H](CCCNC(=N)N)C(=O)N(C)[C@@H](CCCC)C(=O)N[C@@H](CCCCC)C(=O)N2CCC[C@H]2C(=O)N[C@@H](C(C)C)C(=O)N[C@@H](CC(=O)O)C(=O)N[C@H](C(=O)N[C@@H](CC(=O)O)C(N)=O)CSCC(=O)N[C@@H](Cc2ccc3ccccc3c2)C(=O)N[C@@H](Cc2c[nH]c3ccccc23)C(=O)N[C@@H](CC(=O)O)C1=O` [compound 1243] ({CH2CO}-[2Nal]WD[NHexGly]Y[Nle]DR[NMeNle][Ahp(2)]PVDCD-NH2; thioether N-14), the pIC50 under setting [1] is 7.70. `CCCCCCN1CC(=O)N[C@@H](Cc2ccc(O)cc2)C(=O)N[C@@H](CCCC)C(=O)N[C@@H](CC(N)=O)C(=O)N[C@@H](CCCNC(=N)N)C(=O)N(C)[C@@H](CCCC)C(=O)N[C@@H](CCCCC)C(=O)N2CCC[C@H]2C(=O)N[C@@H](C(C)(C)C)C(=O)N[C@@H](CO)C(=O)N[C@H](C(=O)N[C@@H](CC(=O)NCCOCCOCC(=O)N[C@@H](CC(=O)O)C(=O)NCCOCCOCC(=O)NCCCCCCCCCCC(=O)O)C(=O)O)CSCC(=O)N[C@@H](Cc2cccc(C)c2)C(=O)N[C@@H](Cc2c[nH]c3ccccc23)C(=O)N[C@@H](CC(=O)O)C1=O` [compound 2024] ({CH2CO}-[Phe(3-Me)]WD[NHexGly]Y[Nle]NR[NMeNle][Ahp(2)]P[Tle]SC[βAsp][AEEA]D[AEEA][Aun]-OH; thioether N-14): the negative logarithm of the IC50 (pIC50) (cell-based binding high-content assay, mVISTA, read-out: HC CBA miPr ISTA IC50) was 7.39. Consider `CCCCCCN1CC(=O)N[C@@H](Cc2ccc(O)cc2)C(=O)N[C@@H](CCCC)C(=O)N[C@@H](CC(N)=O)C(=O)N[C@@H](CCCNC(=N)N)C(=O)N(C)[C@@H](CCCC)C(=O)N[C@@H](CCCCC)C(=O)N2CCC[C@H]2C(=O)N[C@@H](C(C)(C)C)C(=O)N[C@@H](CO)C(=O)N[C@H](C(=O)N[C@@H](CC(=O)NCCOCCOCC(=O)NCCCCCCCCCCC(=O)O)C(=O)O)CSCC(=O)N[C@@H](Cc2cccc(C)c2)C(=O)N[C@@H](Cc2c[nH]c3ccccc23)C(=O)N[C@@H](CC(=O)O)C1=O` [Example 2197] ({CH2CO}-[Phe(3-Me)]WD[NHexGly]Y[Nle]NR[NMeNle][Ahp(2)]P[Tle]SC[βAsp][AEEA][Aun]-OH; thioether N-14), for which, for the setting “read-out: HC CBA mVISTA IC50”, the negative logarithm of the IC50 (pIC50) is 7.49.

In the case of `CCCCCCN1CC(=O)N[C@@H](Cc2ccc(O)cc2)C(=O)N[C@@H](CCCC)C(=O)N[C@@H](CC(N)=O)C(=O)N[C@@H](CCCNC(=N)N)C(=O)N(C)[C@@H](CCCC)C(=O)N[C@@H](CCCCC)C(=O)N2CCC[C@H]2C(=O)N[C@@H](C(C)(C)C)C(=O)N[C@@H](CO)C(=O)N[C@H](C(=O)N[C@@H](CC(=O)NCCOCCOCC(=O)NCCCCCCCCCCC(=O)O)C(=O)O)CSCC(=O)N[C@@H](Cc2ccccc2)C(=O)N[C@@H](Cc2c[nH]c3ccccc23)C(=O)N[C@@H](CC(=O)O)C1=O` [Example 2191] ({CH2CO}-FWD[NHexGly]Y[Nle]NR[NMeNle][Ahp(2)]P[Tle]SC[βAsp][AEEA][Aun]-OH; thioether N-14), the pIC50 (read-out: HC CBA mVISTA IC50) is 7.71. On the same count and under the same terms, to `CCCCCCN1CC(=O)N[C@@H](Cc2ccc(O)cc2)C(=O)N[C@@H](CC(C)C)C(=O)N[C@@H](CC(N)=O)C(=O)N[C@@H](CCCNC(=N)N)C(=O)N(C)[C@@H](CCCC)C(=O)N[C@@H](CCCCC)C(=O)N2CCC[C@H]2C(=O)N[C@@H](C(C)C)C(=O)N[C@@H](CO)C(=O)N[C@H](C(=O)NCC(N)=O)CSCC(=O)N[C@@H](Cc2ccc(C(N)=O)cc2)C(=O)N[C@@H](Cc2ccc(O)cc2)C(=O)N[C@@H](CC(=O)O)C1=O` [compound 1213] ({CH2CO}-[Phe(4-CONH2)]YD[NHexGly]YLNR[NMeNle][Ahp(2)]PVSCG-NH2; thioether N-14) belongs 7.57. As for `CCCCCCN1CC(=O)N[C@@H](Cc2ccc(O)cc2)C(=O)N[C@@H](CCCC)C(=O)N[C@@H](CC(N)=O)C(=O)N[C@@H](CCCNC(=N)N)C(=O)N[C@@H](CC(C)C)C(=O)N[C@@H](CCCCC)C(=O)N2CCC[C@H]2C(=O)N[C@@H](C(C)C)C(=O)N[C@@H](CC(=O)O)C(=O)N[C@H](C(=O)NCC(=O)O)CSCC(=O)N[C@@H](Cc2cccc(C)c2)C(=O)N[C@@H](Cc2c[nH]c3ccccc23)C(=O)N[C@@H](CC(=O)O)C1=O` [compound 1420] ({CH2CO}-[Phe(3-Me)]WD[NHexGly]Y[Nle]NRL[Ahp(2)]PVDCG-OH; thioether N-14), the negative logarithm of the IC50 (pIC50) (the 19th table, scaffold drawing 22, read-out: HC CBA mVISTA IC50) was 8.70.

With `CCCCCCN1CC(=O)N[C@@H](Cc2ccc(O)cc2)C(=O)N[C@@H](CCCC)C(=O)N[C@@H](CC(N)=O)C(=O)N[C@@H](CCCNC(=N)N)C(=O)N(C)[C@@H](CCCC)C(=O)N[C@@H](CCCCC)C(=O)N2CCC[C@H]2C(=O)N[C@@H](C(C)C)C(=O)N[C@@H](CC(=O)O)C(=O)N[C@H](C(=O)N[C@@H](CO)C(=O)O)CSCC(=O)N[C@@H](Cc2ccccc2)C(=O)N[C@@H](Cc2c[nH]c3ccccc23)C(=O)N[C@@H](CC(=O)O)C1=O` [Example 1406] ({CH2CO}-FWD[NHexGly]Y[Nle]NR[NMeNle][Ahp(2)]PVDCS-OH; thioether N-14), the pIC50 (read-out: HC CBA mVISTA IC50) was 8.19. In the case of `CCCCCCN1CC(=O)N[C@@H](Cc2ccc(O)cc2)C(=O)N[C@@H](CCCC)C(=O)N[C@@H](CC(N)=O)C(=O)N[C@@H](CCCNC(=N)N)C(=O)N(C)[C@@H](CCCC)C(=O)N[C@@H](CCCCC)C(=O)N2CCC[C@H]2C(=O)N[C@@H](C(C)(C)C)C(=O)N[C@@H](CC(=O)O)C(=O)N[C@H](C(=O)NCC(N)=O)CSCC(=O)N[C@@H](Cc2ccccc2)C(=O)N[C@@H](Cc2c[nH]c3ccccc23)C(=O)N[C@@H](CC(=O)O)C1=O` [Example 1396] ({CH2CO}-FWD[NHexGly]Y[Nle]NR[NMeNle][Ahp(2)]P[Tle]DCG-NH2; thioether N-14), the pIC50 (read-out: HC CBA mVISTA IC50) is 7.57.

With `CCCCCCN1CC(=O)N[C@@H](Cc2ccc(O)cc2)C(=O)N[C@@H](CCCC)C(=O)N[C@@H](CC(N)=O)C(=O)N[C@@H](CCCNC(=N)N)C(=O)N[C@@H](CC(C)C)C(=O)N[C@@H](CCCCC)C(=O)N2CCC[C@H]2C(=O)N[C@@H](C(C)(C)C)C(=O)N[C@@H](CO)C(=O)N[C@H](C(=O)NCCOCCOCC(=O)N[C@@H](CCC(=O)NCCOCCOCC(=O)NCCCCCCCCCCC(=O)O)C(=O)O)CSCC(=O)N[C@@H](Cc2ccccc2)C(=O)N[C@@H](Cc2c[nH]c3ccccc23)C(=O)N[C@@H](CC(=O)O)C1=O` [compound 2243] ({CH2CO}-FWD[NHexGly]Y[Nle]NRL[Ahp(2)]P[Tle]SC[AEEA][γGlu][AEEA][Aun]-OH; thioether N-14), the pIC50 (read-out: HC CBA mVISTA IC50) is 7.41. With `CCCCCCN1CC(=O)N[C@@H](Cc2ccc(O)cc2)C(=O)N[C@@H](CCCCC)C(=O)N[C@@H](CCC(=O)O)C(=O)N[C@@H](CCCNC(=N)N)C(=O)N[C@@H](CC(C)C)C(=O)N[C@@H](CCCCC)C(=O)N2CCC[C@H]2C(=O)N[C@@H](C(C)C)C(=O)N[C@@H](CO)C(=O)N[C@H](C(=O)NCC(N)=O)CSCC(=O)N[C@@H](Cc2ccccc2)C(=O)N[C@@H](Cc2ccc(O)cc2)C(=O)N[C@@H](CC(=O)O)C1=O` [Example 1057] ({CH2CO}-FYD[NHexGly]Y[Ahp(2)]ERL[Ahp(2)]PVSCG-NH2; thioether N-14), the negative logarithm of the IC50 (pIC50) (293T cells expressing mouse VISTA, competition with biotinylated peptide (2 nM), read-out: HC CBA mVISTA IC50) was 7.45.

With `CCCCCCN1CC(=O)N[C@@H](Cc2ccc(O)cc2)C(=O)N[C@@H](CCCC)C(=O)N[C@@H](CC(N)=O)C(=O)N[C@@H](CCCNC(=N)N)C(=O)N(C)[C@@H](CCCC)C(=O)N[C@@H](CCCCC)C(=O)N2CCC[C@H]2C(=O)N[C@@H](C(C)C)C(=O)N[C@@H](CC(=O)O)C(=O)N[C@H](C(=O)NCC(=O)O)CSCC(=O)N[C@@H](Cc2ccc3ccccc3c2)C(=O)N[C@@H](Cc2c[nH]c3ccccc23)C(=O)N[C@@H](CC(=O)O)C1=O` [compound 1245] ({CH2CO}-[2Nal]WD[NHexGly]Y[Nle]NR[NMeNle][Ahp(2)]PVDCG-OH; thioether N-14), under setting [1], the negative-log IC50 (pIC50) was 8.21. In the case of `CCCCCCN1CC(=O)N[C@@H](Cc2ccc(O)cc2)C(=O)N[C@@H](CC(C)C)C(=O)NCC(=O)N[C@@H](CCCNC(=N)N)C(=O)N[C@@H](CC(C)C)C(=O)N[C@@H](CCCCC)C(=O)N2CCC[C@H]2C(=O)N[C@@H](C(C)C)C(=O)N[C@@H](CCC(=O)O)C(=O)N[C@H](C(=O)NCC(N)=O)CSCC(=O)N[C@@H](Cc2ccc3ccccc3c2)C(=O)N[C@@H](Cc2ccc(O)cc2)C(=O)N[C@@H](CC(=O)O)C1=O` [Ex 1286] ({CH2CO}-[2Nal]YD[NHexGly]YLGRL[Ahp(2)]PVECG-NH2; thioether N-14), for the setting “cell-based binding high-content assay, mVISTA, the 16th table, read-out: HC CBA mVISTA IC50”, the negative-log IC50 (pIC50) is 7.41. Take `CCCCCCN1CC(=O)N[C@@H](Cc2ccc(O)cc2)C(=O)N[C@@H](CC(C)C)C(=O)NCC(=O)N[C@@H](CCCNC(=N)N)C(=O)N[C@@H](CC(C)C)C(=O)N[C@@H](CCCCC)C(=O)N2CCC[C@H]2C(=O)N[C@@H](C(C)C)C(=O)N2CCC[C@H]2C(=O)N[C@H](C(=O)NCC(N)=O)CSCC(=O)N[C@@H](Cc2ccccc2)C(=O)N[C@@H](Cc2ccc(O)cc2)C(=O)N[C@@H](CC(=O)O)C1=O` [compound 1125] ({CH2CO}-FYD[NHexGly]YLGRL[Ahp(2)]PVPCG-NH2; thioether N-14): under “read-out: HC CBA mVISTA IC50”, the negative-log IC50 (pIC50) is 7.47.
